Assay results: patent US6107017A, “Photographic elements containing high-boiling diester solvents” (Eastman Kodak Company, priority 1998, dated 2000)

What was measured:
Type in all cases: physicochemical
[1] = Water solubility from light scattering (at 500 nm) of dispersions of the high-boiling solvent in water
Method: (§1) Water solubilities were obtained from plots of light scattering (at 500 nm) of dispersions of the high-boiling solvent in water versus concentration. The light scattering density goes to zero at the solubility limit, when dispersions of high-boiling solvent are diluted. […] Viscosities reported in Table I were measured using a Brookfield cone/plate viscometer. Solvents of high polarity and/or polarizability are often needed to provide suitably bathochromic hues for the types of dyes commonly encountered in color photographic materials. Dye C1, whose structure is provided after Table I, is representative of such dyes. The visible absorption maxima (Lambda max) values for C1, measured with a Perkin Elmer Lambda 2S spectrophotometer, are provided in Table I as measures of solvent polarity/polarizability.

[2] = Lambda max of the yellow dye produced from Coupler Y-1 on development; details: yellow dye from Y-1, at a blue density of about 1.0
Method: For this example, Coupler Y-1 (structure below) was dispersed and coated with comparative high-boiling solvent B1 and with high-boiling solvent A2 of this invention. The dispersions were prepared by adding an oil phase containing a 1:1:3 weight ratio of Y-1:high-boiling solvent: ethyl acetate to an aqueous phase containing gelatin and the dispersing agent ALKANOL XC (mixed isomers of triisopropyl-2-naphthalene sulfonic acid, sodium salt, DuPont) in a 10:1 weight ratio. The mixture was then passed through a colloid mill to disperse the oil in the aqueous phase as small particles. On coating, the ethyl acetate auxiliary solvent evaporates. […]
After hardening, samples of each of the films in Table II were given a sensitometric white light exposure and processed using the KODAK FLEXICOLOR C-41 procedure described in Table III. Measurements of status M blue density versus exposure were made for each processed film strip, and photographic contrast (gamma) was determined from the slopes of such plots. […] The gamma value of 2.45 obtained with solvent A2 of this invention in coating B is similar to the gamma value of 2.63 obtained from comparative solvent B1 in coating A. Spectra of the yellow dye produced from Y-1 on development were measured at a blue density of about 1.0 using a Perkin Elmer Lambda 2S spectrophotometer. […]

[3] = Visible absorption maximum (Lambda max) of Dye C1 in the high-boiling solvent, as measure of solvent polarity/polarizability; details: Perkin Elmer Lambda 2S spectrophotometer
Method: as §1

[4] = Viscosity measured using a Brookfield cone/plate viscometer
Method: Water solubilities were obtained from plots of light scattering (at 500 nm) of dispersions of the high-boiling solvent in water versus concentration. The light scattering density goes to zero at the solubility limit, when dispersions of high-boiling solvent are diluted. Values of log P calculated using MEDCHEM version 3.54 are also given in Table I and serve as rough indicators of water solubility. Viscosities reported in Table I were measured using a Brookfield cone/plate viscometer. Solvents of high polarity and/or polarizability are often needed to provide suitably bathochromic hues for the types of dyes commonly encountered in color photographic materials. Dye C1, whose structure is provided after Table I, is representative of such dyes. The visible absorption maxima (Lambda max) values for C1, measured with a Perkin Elmer Lambda 2S spectrophotometer, are provided in Table I as measures of solvent polarity/polarizability.

Row | Water Solubility [1] [mg/L] | Lambda max of Dye C1 [3] [nm] | Viscosity [4] [centipoise] | SMILES | Lambda max [2] [nm]
1 | 10 |  |  | O=C(OCCc1ccccc1)c1ccccc1 [B4, reference compound] | 
2 |  |  |  | CCCCOC(=O)c1ccccc1C(=O)OCCCC [B1, dibutyl phthalate, reference compound] | 449
3 | 1.9 | 672 | 295 | Cc1cccc(C(=O)OCCC(C)OC(=O)c2cccc(C)c2)c1 (centres unmarked) [A3] | 
4 |  | 661 | 6 | CCCCC(CC)COC(=O)c1ccccc1 (centres unmarked) [B3, reference compound] | 
5 | 1.2 | 672 | 265 | Cc1ccc(C(=O)OCCC(C)OC(=O)c2ccc(C)cc2)cc1 (centres unmarked) [A1] | 
6 | 1.5 | 673 | 122 | CCCC(COC(=O)c1ccccc1)OC(=O)c1ccccc1 (centres unmarked) [A5] | 

Row | SMILES | Water Solubility [1] [mg/L] | Lambda max of Dye C1 [3] [nm] | Viscosity [4] [centipoise] | Lambda max [2] [nm]
7 | CCCCC(COC(=O)c1ccccc1)OC(=O)c1ccccc1 (centres unmarked) [A2] | 1.1 | 672 | 157 | 449
8 | O=C(OCCCCCOC(=O)c1ccccc1)c1ccccc1 [A4] | 2.4 | 674 | 70 | 
